Patent US20110158909A1, “Cationic Contrast Agents and Methods of Use Thereof” (Trustees of Boston University, priority 2008, published 2011)
Read-outs that look alike come from different tables or passages of the source.

Tests used:
[1] = CT imaging of normal and trypsin degraded osteochondral plugs with anionic and cationic contrast agent; parameters: species or system bovine; conditions: for x-ray attenuation coefficient, normal vs trypsin degraded osteochondral plugs: 16 mg/mL bound iodine, overnight at 4° C., p<0.05
Procedure: In one experiment, eight osteochondral plugs (7 mm diameter) were harvested immediately after slaughter from the patella-femoral joint of three mature cows using a water-cooled, cylindrical diamond tipped cutter (See FIG. 2a for an example picture of osteochondral plugs). The plugs were divided into a normal cartilage group (n=4) and a trypsin degraded cartilage group (n=4). The osteochondral plugs of the degraded cartilage group were immersed in trypsin (2 mg/mL in 50 mM Tris, 20 mM CaCl2, pH=7.8) and incubated for 2 hours at 37° C.
All the plugs were immersed overnight in Cysto Conray II, an anionic, triiodinated contrast agent, diluted in PBS to 16 mg/mL of bound iodine at 4° C. to allow sufficient time for the contrast agent to diffuse into the cartilage. Sequential, 100μ thick, transaxial pQCT images were obtained at 70μ in plane resolution and 300μ inter-slice distance (XCT Research SA+, Stratec) for all the osteochondral plugs. The CT data were imported into Analyze™ (BIR, Mayo Clinic) to create reconstructed 3D images of the osteochondral plugs (see FIG. 2b for a representative image representing one slice of the reconstructed 3D image). A user specified contour was employed to segment the cartilage from the bone. The mean x-ray attenuation coefficient for cartilage was obtained by averaging over all pixels contained in cartilage on the transaxial CT images. The osteochondral plugs were then washed in PBS to remove the anionic contrast agent. The plugs were then re-immersed in the cationic triiodinated contrast agent at the same dilution and conditions used for the anionic contrast agent and repeat CT imaging of the osteochondral plugs was performed.
The GAG content of the articular cartilage was measured using a dimethylmethylene blue (DMMB) assay. A razor blade was used to separate the articular cartilage from the subchondral bone and the cartilage was stored at −20° C. After weighing the hydrated cartilage, it was lyophilized and weighed dry. The cartilage was digested with papain at 65° C. for 24 hours and diluted 10 to 100 times for the assay. Accounting for the dilution, the total GAG weight per mg cartilage dry weight was calculated.
The GAG content measured directly; the x-ray attenuation measured by CT for the anionic and cationic contrast agents were compared for the normal and trypsin degraded articular cartilage plugs using 1-way.ANOVA. Further, the x-ray attenuation measured by CT for both the anionic and cationic contrast agents was expressed as a function of the measured GAG content. The slopes of these relationships were compared to assess the relative sensitivity of these contrast agents to measure differences in the GAG content of articular cartilage.

[2] = Cartilage degradation study (chondroitinase ABC): CT attenuation vs GAG content by DMMB assay; parameters: species or system bovine; conditions: for slope of linear regression, average CT intensity vs GAG content: GAG content as 100×(mg of GAG)/(mg of hydrated cartilage)
Description: In order to evaluate the ability of the contrast agents to diagnose an OA state, the hyaline cartilage of the osteochondral plugs was enzymatically degraded to mimic the GAG depletion observed in early OA by exposing the hyaline cartilage to different concentrations of the polysaccharide-specific hydrolase, chondroitinase ABC. After degradation, the same set of osteochondral plugs was exposed to each contrast agent consecutively, enabling a direct comparison of the resulting data. The average CT attenuation for each group was plotted as a function of the GAG content obtained by the DMMB assay and subjected to linear regression analysis (FIG. 7A). […] The variation in CT attenuation effected by diffusion of cationic contrast agent 6, with four positive charges, into the hyaline cartilage accounted for 79% of the variation in cartilage GAG, whereas the variation in CT attenuation effected by diffusion of cationic contrast agent 4, with a single positive charge, accounted for 56% of the variation in cartilage GAG. In comparison, the diffusion of anionic contrast agent iothalamate with a single negative charge accounted for 52% of the variation in cartilage GAG. The slope of the regression line represents the sensitivity of contrast enhanced CT attenuation of cartilage to changes in the GAG content of the cartilage. The cationic contrast agents were more sensitive (4: 1.4× and 6: 5.3×) to changes in cartilage GAG content than the anionic contrast agent iothalamate.

[3] = Passive diffusion of contrast agents into and out of articular cartilage, quantitative CT; parameters: species or system bovine; conditions: for average CT attenuation: time=5 h to time=24 h of immersion in contrast agent, 27 mg iodine/mL, pH 6.8, n=4
Procedure: The diffusion characteristics of the contrast agents were evaluated using bovine osteochondral plugs. Two cationic contrast agents, 4 and 6, were compared to a commercially-available singly-charged anionic contrast agent, iothalamate (Cysto Conray II®). Three groups of osteochondral plugs were prepared (n=4)—one for each contrast agent. The plugs were immersed in aqueous contrast agent solution (27 mg of organically-bound iodine/mL, pH 6.8) and removed at 1, 2, 4, 6, 18, and 24 h for imaging using quantitative CT (QCT). Following diffusion into the cartilage, the osteochondral plugs were immersed in saline solution and imaged at the same time points to monitor the diffusion of the contrast agent out of the cartilage. Articular cartilage has a natural anisotropic distribution of GAGs, with low GAG content in the superficial zone and higher GAG content in the middle and deep zones. This anisotropic distribution of GAG was reflected by the variation in x-ray attenuation in the CT images (FIG. 5B). […] In order to determine the initial rates of diffusion into the cartilage tissue, linear regression analyses were applied to the contrast-enhanced CT attenuation data for each osteochondral plug after immersion for 0, 1, and 2 h (Table 1). The slope represents the average rate of diffusion for each contrast agent. Cationic contrast agents 4 and 6 diffuse into cartilage 1.77 and 1.65 times faster, respectively, than the anionic agent iothalamate (FIG. 6).

[4] = microCT imaging of intact rabbit femur; conditions: magnified view of cartilage surface, FIG. 8B
Description: Contrast agent 6 was chosen for use in a rabbit femur study to highlight the ability of the cationic contrast agent to portray the variation in cartilage GAG concentration and cartilage thickness in an intact rabbit femur. […] The contrast-enhanced CT image was able to define the anisotropic distribution of GAG through the depth of the articular cartilage. […] The contrast enhanced CT image of the femur can also be used to determine the variable thickness of the articular cartilage. […] Cartilage thickness is greater at the femoral groove than at the condyles.

[5] = 2 h immersion in contrast agent

SMILES	x-ray attenuation coefficient, normal vs trypsin degraded osteochondral plugs [1]	sensitivity of relative change in x-ray attenuation to change in GAG content, compared to anionic contrast agent ([1]; normal vs trypsin degraded plugs)	enhancement of CT images of cartilage tissue ([1]; osteochondral plugs)	relation of CT attenuation to GAG content [2]	variation in cartilage GAG accounted for by variation in CT attenuation [2]	slope of linear regression, average CT intensity vs GAG content [2]	level of CT attenuation in CT images of degraded and undegraded plugs ([2]; after equilibrium in contrast agent, FIG. 7B)	CT attenuation of cartilage in CT images [3, 5]	reflection of anisotropic GAG distribution (deep vs superficial zone) in CT images ([3]; FIG. 5B)	CT attenuation of cartilage in CT images ([3]; after 2 h of immersion in saline)	removal from cartilage on immersion in saline ([3]; after immersion in saline for 6 hours)	average CT attenuation [3]	level of CT attenuation in CT images of degraded and undegraded plugs [2]	sensitivity to changes in cartilage GAG content relative to iothalamate (slope of regression line) [2]	CT attenuation of cartilage in CT images ([3]; after 24 h in saline)	x-ray attenuation higher compared to iothalamate ([3]; after equilibration (24 h))	initial rate of diffusion into cartilage relative to iothalamate ([3]; linear regression of CT attenuation at 0, 1 and 2 h)	sensitivity to distribution of GAG in cartilage surface [4]
NCCNC(=O)c1c(I)c(N)c(I)c(C(=O)NCCN)c1I [contrast agent 2]	greater than that for the trypsin degraded osteochondral plugs	4.3 ×	capable of enhancing CT images of the cartilage tissue															
CNC(=O)c1c(I)c(NC(C)=O)c(I)c(C(=O)O)c1I [iothalamate, reference compound]	inverse relation			indirectly related	52%	negative slope	low levels of CT attenuation	very little change	less sensitive to subtle changes in the GAG content	began to decline	almost completely removed	500-600						
NCCNC(=O)c1c(I)cc(I)c(N)c1I [contrast agent 6]				directly proportional	79%	13758		medium levels				900-1100	high levels of CT attenuation	5.3 ×	still showed medium levels of CT attenuation	~60%	1.65 times faster	sensitive to the variable distribution of GAG throughout the cartilage surface
